Data taken from publication PMC5653977 (EMBO Molecular Medicine, 2017).

Columns and labels:
TEV protease = biological target: T1, TEV protease (Tobacco etch virus, UniProt P04517); test: TEV protease activity control assay (TM-TEV/TM-tevS-GV); type: cell-based; details: TM-TEV, TM-tevS-GV and 10×UAS-Fluc in PC12 cells
T1 construct: a transmembrane‐localized TEV protease (TM‐TEV) was expressed in PC12 cells; expressed in transfected cells; host or cells: PC12 Tet-Off cells (rat)
Source text: (§1) All counts (407 compounds and 96 controls) from the Nrg1‐ERBB4‐PIK3R1 split TEV compound screen were plotted against the z‐score using Mondrian, with pathway activators displaying high values and inhibitors low values. For the secondary analysis, we selected all candidates that were at least three standard deviations away from the mean. […] For the GAL4/UAS assay, GAL4‐VP16 (GV) and 10×UAS firefly luciferase (10×UAS‐Fluc) plasmids were transfected into PC12 cells. For TEV protease activity assays, a transmembrane‐localized TEV protease (TM‐TEV) was expressed in PC12 cells with a transmembrane‐localized and TEV‐cleavable GV (TM‐tevS‐GV) and the 10×UAS‐Fluc reporter. […] EGFld was applied as Nrg1 stimulus. In both control assays, the assay activity (firefly luciferase, black lines) was similar to the toxicity levels (gray lines). Data are shown as mean, a nd error bars represent SEM, n = 6. The insets depict IC50 values in μM.

Nrg1-tg and wt mice [1] = test: Tail suspension test; type: in vivo, mouse; details: 50 mg/kg s.c. daily
Description: (§2) For behavioral testing, age‐matched male mice (8–16 weeks) on C57Bl/6 background that constitutively overexpress the 2xHA‐tagged Nrg1 type III β1a isoform (Nrg1‐tg) under the control of the mouse Thy1.2 promoter (Velanac et al, 2012) and their wild‐type (wt) littermates as controls were used. Animals were group‐housed in the same ventilated sound‐attenuated rooms under a 12‐h light/12‐h dark schedule (lights on at 8:00 am) at an ambient temperature of 21°C with food and water available ad libitum. One week prior to experiments, mice were separated into single cages and habituated to the experimental rooms. To minimize the influence of the circadian rhythm on drug actions, the treatment groups were analyzed at balanced time points during the light phase. […] All animal experiments were conducted in accordance with NIH principles of laboratory animal care and were approved by the Government of Lower Saxony, Germany, in accordance with the German Animal Protection Law.
(§3) Treatment was continued throughout the behavioral analysis period. To avoid injection‐induced stress prior to behavioral testing, mice were injected in the afternoon, after the entire cohort has completed the behavioral paradigm.

ERBB4 = ERBB4 (Homo sapiens, UniProt Q15303); test: Western blot of ERBB4 phosphorylation in T-47D cells; details: 10 ng/ml EGFld, 10 μM compound, 5 min
[2] = biological target: ERBB2-NTEV-tevS-GV + ERBB2-CTEV (Homo sapiens, UniProt P04626); test: ERBB dimerization split TEV assay ERBB2/ERBB2; type: cell-based; details: 10 ng/ml EGFld
Source text: (§4) Gateway recombination cloning (Life Technologies) was applied for generating plasmids. Each ORF cloned was PCR‐amplified using the Pwo proofreading DNA polymerase (Roche) and BP‐recombined into the pDONR/Zeo plasmid (Life Technologies) to yield an entry vector, which was control‐digested using BsrGI to release the insert, and sequence‐verified. The following human ORFs were cloned using cDNA image clones ordered from Source BioScience: ERBB4 transcript variant JM‐a/CYT‐1 (Accession: BC112199), PIK3R1 (BC094795), GRB2 transcript variant 1 (BC000631), SHC1 transcript variant 2 (BC014158), STAT5A (BC027036), and SRC transcription variant 1 (BC051270). For EGFR, ERBB2, and ERBB3, entry vectors were obtained from the human CCSB kinase collection available from Addgene (Johannessen et al, 2010). Entry vectors were LR‐recombined into split TEV destination vectors [either pcDNA_attR1‐ORF‐attR2‐NTEV‐tevS‐GV‐2xHA_DEST or pTag4C_attR1‐ORF‐attR2‐CTEV‐2xHA_DEST, plasmids were described in detail before (Wehr et al, 2006)] to yield expression vectors, which were control‐digested using BsrGI. The plasmids for Nrg1 type I β1a and rat Nrg1 type III β1a have been described before (Wehr et al, 2006).

[3] = biological target: EGFR-NTEV-tevS-GV + ERBB3-CTEV (Homo sapiens, UniProt P00533+P21860); test: ERBB dimerization split TEV assay EGFR/ERBB3; type: cell-based; details: 10 ng/ml EGFld
Source text: as §4

GAL4/UAS system = test: GAL4/UAS control assay; type: cell-based; details: GV and 10×UAS-Fluc plasmids in PC12 cells
Source text: as §1

PC12 cells = test: Renilla luciferase readings as toxicity control in dose-response assay; type: cell-based; details: dose-response co-culture assay, Nrg1 type I β1a, 24 h
Source text: For our HTS‐compatible split TEV assay approach, human full‐length ERBB4‐Cyt1 was fused to the NTEV fragment, a TEV protease cleavage site (tevS) and the artificial co‐transcriptional activator Gal4‐VP16 (ERBB4‐NTEV‐tevS‐GV); human PIK3R1 was fused to the CTEV fragment (PIK3R1‐CTEV) (Fig 1A). Upon ERBB4 activation, PIK3R1 is recruited to the receptor resulting in a reconstituted protease activity that cleaves off GV. In turn, released GV translocates to the nucleus and binds to upstream activating sequences (UAS) to activate the transcription of a firefly luciferase reporter gene (Fig 1A). A constitutively expressed Renilla luciferase driven under the control of the human thymidine kinase (TK) promoter was used as control to address off‐target effects related to toxicity.

[4] = biological target: ERBB2-NTEV-tevS-GV + ERBB3-CTEV (Homo sapiens, UniProt P04626+P21860); test: ERBB dimerization split TEV assay ERBB2/ERBB3; type: cell-based; details: 10 ng/ml EGFld
Source text: as §4

Nrg1-tg and wt mice [5] = test: Prepulse inhibition (PPI); type: in vivo, mouse
Description: as §2, §3
The startle response was measured using a two test cabinet (SR‐LAB, San Diego Instruments) using a protocol as described in Brzózka et al (2010).

[6] = 50 mg/kg s.c. daily for 3 weeks and throughout phenotyping, vs vehicle
[7] = before vs after chronic treatment, 50 mg/kg s.c. daily

Sequence of ERBB2-NTEV-tevS-GV + ERBB3-CTEV (P04626 23-1255): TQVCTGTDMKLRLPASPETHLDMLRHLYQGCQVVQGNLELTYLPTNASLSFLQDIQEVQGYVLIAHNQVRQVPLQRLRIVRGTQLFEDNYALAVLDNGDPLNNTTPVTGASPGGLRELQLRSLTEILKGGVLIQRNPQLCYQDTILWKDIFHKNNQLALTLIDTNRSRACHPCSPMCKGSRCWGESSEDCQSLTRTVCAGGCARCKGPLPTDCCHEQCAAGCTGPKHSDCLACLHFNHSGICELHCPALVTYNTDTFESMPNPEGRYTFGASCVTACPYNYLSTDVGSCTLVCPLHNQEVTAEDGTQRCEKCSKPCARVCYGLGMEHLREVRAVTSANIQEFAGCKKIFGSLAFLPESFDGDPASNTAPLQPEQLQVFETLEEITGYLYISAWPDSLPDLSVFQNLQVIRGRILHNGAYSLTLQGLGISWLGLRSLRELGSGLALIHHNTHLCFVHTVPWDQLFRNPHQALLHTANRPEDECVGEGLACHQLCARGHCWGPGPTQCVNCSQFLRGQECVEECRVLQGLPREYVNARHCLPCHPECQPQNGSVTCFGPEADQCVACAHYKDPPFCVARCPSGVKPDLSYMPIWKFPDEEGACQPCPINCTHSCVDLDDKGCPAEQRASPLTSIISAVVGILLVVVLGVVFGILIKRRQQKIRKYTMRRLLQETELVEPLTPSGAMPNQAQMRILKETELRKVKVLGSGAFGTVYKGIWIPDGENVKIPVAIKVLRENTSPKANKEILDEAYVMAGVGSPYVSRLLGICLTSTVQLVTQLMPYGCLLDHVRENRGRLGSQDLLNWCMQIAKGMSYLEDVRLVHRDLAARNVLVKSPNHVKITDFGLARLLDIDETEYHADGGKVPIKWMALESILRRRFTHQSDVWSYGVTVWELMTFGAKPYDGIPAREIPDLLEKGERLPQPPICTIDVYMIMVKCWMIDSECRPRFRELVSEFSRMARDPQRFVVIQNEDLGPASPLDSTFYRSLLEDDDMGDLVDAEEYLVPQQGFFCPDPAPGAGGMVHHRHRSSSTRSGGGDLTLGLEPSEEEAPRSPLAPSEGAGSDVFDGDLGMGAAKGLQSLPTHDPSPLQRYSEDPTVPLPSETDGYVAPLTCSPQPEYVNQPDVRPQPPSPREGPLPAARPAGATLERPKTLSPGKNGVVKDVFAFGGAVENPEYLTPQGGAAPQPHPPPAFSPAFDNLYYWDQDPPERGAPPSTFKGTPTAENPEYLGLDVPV
Sequence of ERBB2-NTEV-tevS-GV + ERBB3-CTEV (P21860 20-1342): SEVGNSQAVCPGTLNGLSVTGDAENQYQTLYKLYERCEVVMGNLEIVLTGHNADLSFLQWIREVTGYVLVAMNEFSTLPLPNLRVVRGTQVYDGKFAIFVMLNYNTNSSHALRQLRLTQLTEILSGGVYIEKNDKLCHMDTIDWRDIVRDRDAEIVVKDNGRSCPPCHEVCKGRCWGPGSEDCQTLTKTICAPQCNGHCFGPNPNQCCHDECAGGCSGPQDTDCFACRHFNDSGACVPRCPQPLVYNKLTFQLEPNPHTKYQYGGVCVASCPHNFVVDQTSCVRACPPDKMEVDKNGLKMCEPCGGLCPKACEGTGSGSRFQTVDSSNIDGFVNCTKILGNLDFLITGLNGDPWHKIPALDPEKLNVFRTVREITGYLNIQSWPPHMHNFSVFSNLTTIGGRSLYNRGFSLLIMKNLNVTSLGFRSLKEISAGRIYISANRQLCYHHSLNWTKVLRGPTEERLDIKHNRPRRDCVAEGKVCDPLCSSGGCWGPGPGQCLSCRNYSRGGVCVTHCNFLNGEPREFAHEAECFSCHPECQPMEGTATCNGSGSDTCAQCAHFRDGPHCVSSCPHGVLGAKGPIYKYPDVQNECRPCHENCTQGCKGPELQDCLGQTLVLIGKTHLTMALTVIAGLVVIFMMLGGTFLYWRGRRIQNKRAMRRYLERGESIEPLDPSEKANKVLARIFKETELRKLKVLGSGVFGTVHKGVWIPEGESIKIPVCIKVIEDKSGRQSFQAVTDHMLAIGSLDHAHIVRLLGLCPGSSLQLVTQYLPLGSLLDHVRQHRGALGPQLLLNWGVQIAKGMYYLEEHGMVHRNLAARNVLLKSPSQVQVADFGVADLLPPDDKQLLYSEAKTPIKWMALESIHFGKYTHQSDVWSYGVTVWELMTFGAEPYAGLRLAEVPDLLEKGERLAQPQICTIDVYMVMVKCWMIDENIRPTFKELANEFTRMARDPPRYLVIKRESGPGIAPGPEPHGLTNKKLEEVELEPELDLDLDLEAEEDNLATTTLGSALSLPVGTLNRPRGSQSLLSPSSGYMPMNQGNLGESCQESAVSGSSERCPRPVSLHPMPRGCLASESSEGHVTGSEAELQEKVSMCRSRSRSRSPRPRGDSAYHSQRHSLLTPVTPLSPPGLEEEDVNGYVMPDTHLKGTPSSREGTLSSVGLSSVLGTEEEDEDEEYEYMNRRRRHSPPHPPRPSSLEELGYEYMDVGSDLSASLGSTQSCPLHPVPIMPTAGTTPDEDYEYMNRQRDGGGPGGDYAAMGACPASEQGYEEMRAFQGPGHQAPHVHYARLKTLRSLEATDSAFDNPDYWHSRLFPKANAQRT
Sequence of ERBB2-NTEV-tevS-GV + ERBB2-CTEV (P04626 23-1255): as the sequence (P04626 23-1255) above
Sequence of ERBB2-NTEV-tevS-GV + ERBB2-CTEV (P04626 23-1255): as above

CC(=O)S[C@@H]1CC2=CC(=O)CC[C@]2(C)[C@H]2CC[C@@]3(C)[C@@H](CC[C@@]34CCC(=O)O4)[C@H]12 [Spironolactone]
effect on activity of the TEV protease (TEV protease): does not affect activities of control assays | time active in the tail suspension test (genotype effect) (Nrg1-tg and wt mice [1]): independent of treatment | ERBB4 phosphorylation at Tyr1056 and Tyr1284 (ERBB4): reduced phosphorylation to intermediate levels | IC50 [2]: 13.1 µM | IC50 [3]: 2.81 µM | effect on activity of the GAL4/UAS system (GAL4/UAS system): does not affect activities of control assays | toxic effects (reduced Renilla luciferase readings) (PC12 cells): marginal toxic effects at higher concentrations | IC50 [4]: 9.23 µM | PPI in Nrg1-tg mice, four-arm study (Nrg1-tg and wt mice [5]; [6]): significantly enhanced | PPI in wt mice, four-arm study (Nrg1-tg and wt mice [5]; [6]): did not influence PPI | PPI in Nrg1-tg mice, pilot two-arm study (Nrg1-tg and wt mice [5]; [7]): significantly improved | PPI in wt controls, pilot two-arm study (Nrg1-tg and wt mice [5]; [7]): had no effect
